PubChem BioAssay (NCI)
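Values below derive from 48-hour exposures of cells grown in 96-well plates, with endpoints linearly interpolated between the two concentrations bracketing the appropriate inhibition level. GI50 = concentration required for 50% inhibition of growth. TGI denotes the concentration required for complete inhibition of growth.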

Key:
Test in all cases: NCI anticancer screen, dose series, 48 h
[1] = system: MDA-MB-468 breast
[2] = system: SF-295 CNS
[3] = system: HCT-15 colon
[4] = system: RXF 393 renal
[5] = system: CCRF-CEM leukemia
[6] = system: EKVX NSCLC
[7] = system: SNB-19 CNS
[8] = system: HCC-2998 colon
[9] = system: SK-MEL-28 melanoma
[10] = system: SK-OV-3 ovarian
[11] = system: NCI-H23 lung
[12] = system: OVCAR-3 ovarian
[13] = system: K-562 leukemia
[14] = system: COLO 205 colon
[15] = system: SR leukemia
[16] = system: SF-268 CNS
[17] = system: CAKI-1 renal
[18] = system: OVCAR-5 ovarian
[19] = system: UACC-62 melanoma
[20] = system: UACC-257 melanoma
[21] = system: MCF7 breast
[22] = system: 786-0 renal
[23] = system: A498 renal
[24] = system: UO-31 renal
[25] = system: HCT-116 colon
[26] = system: SK-MEL-5 melanoma
[27] = system: M14 melanoma
[28] = system: PC-3 prostate
[29] = system: KM12 colon
[30] = system: MALME-3M melanoma
[31] = system: RPMI-8226 leukemia
[32] = system: SK-MEL-2 melanoma
[33] = system: OVCAR-4 ovarian
[34] = system: HL-60(TB) leukemia
[35] = system: SN12C renal
[36] = system: HS 578T breast
[37] = system: ACHN renal
[38] = system: TK-10 renal
[39] = system: SF-539 CNS

SMILES: NC(=O)c1cccc(Nc2nccc(Nc3cccc4[nH]ncc34)n2)c1
- GI50 [1]: 2120 nM
- TGI [1]: 9350 nM

SMILES: COc1cc(CNc2ccccc2C(=O)N2CCN(C(=O)c3cc(-c4cc(OC)c(OC)c(OC)c4)n4nc(-c5ccccc5)cc4n3)CC2)cc(OC)c1OC
- GI50 [1]: 2100 nM
- TGI [1]: 8450 nM

SMILES: COc1cc(Nc2nc3ccccc3cc2C(=O)Nc2ccc(F)c(F)c2)cc(OC)c1OC
- GI50 [1]: 2010 nM
- TGI [1]: 6580 nM

SMILES: COc1cccc(C2c3cc4c(cc3OC(N3CCCC3)C2C)OCO4)c1O (stereo not given)
- GI50 [1]: 3330 nM
- TGI [1]: 15800 nM

SMILES: COc1ccc(C(=O)c2cc3c(N)c(C(=O)Nc4ccc(C)cc4)sc3nc2C)cc1
- GI50 [1]: 1870 nM
- TGI [1]: 7080 nM

SMILES: COc1ccc(/C=N\Nc2ccc([N+](=O)[O-])cn2)cc1OC
- GI50 [1]: > 100000 nM
- TGI [1]: > 100000 nM

SMILES: Cc1ccc(N(CC(=O)Nc2ccc(S(=O)(=O)N3CCC(N4CCCC4)CC3)cc2)S(=O)(=O)c2ccc(Cl)cc2)cc1
- GI50 [1]: 1650 nM
- TGI [1]: 3480 nM

SMILES: CCOC(=O)CC1C(COC(=O)NC)OC(n2cnc3c(NC(=O)Nc4ccccc4)ncnc32)C1O[Si](C)(C)C(C)(C)C (stereo not given)
- GI50 [1]: 19700 nM
- TGI [1]: 94100 nM

SMILES: N#Cc1c(NC(=O)c2ccccc2C(F)(F)F)sc2c1CCC(=O)C2
- GI50 [1]: 1690 nM
- TGI [1]: 4680 nM

SMILES: CN1C(=O)N[C@H]2[C@@H]3NC(=O)c4ccc(Br)n4[C@@H]3C[C@]21O
- GI50 [1]: 25.3 nM
- TGI [1]: 173 nM

SMILES: O=C1/C(=C\c2ccccn2)c2ccccc2N1c1c(Cl)cccc1Cl
- GI50 [1]: 1260 nM
- TGI [1]: 3100 nM

SMILES: Cn1cc(-c2cc(N)n3nc(-c4c[nH]c5ccc(Cl)cc45)cc3n2)c2cccnc21
- GI50 [2]: 1650 nM
- TGI [2]: 3130 nM
- GI50 [3]: 1790 nM
- TGI [3]: 3940 nM
- GI50 [4]: 1490 nM
- TGI [4]: 2900 nM
- GI50 [5]: 2510 nM
- TGI [5]: 9050 nM
- GI50 [6]: 1850 nM
- TGI [6]: 4530 nM
- GI50 [7]: 2600 nM
- TGI [7]: 6740 nM
- GI50 [8]: 1760 nM
- TGI [8]: 3200 nM
- GI50 [9]: 1530 nM
- TGI [9]: 2900 nM
- GI50 [1]: 1560 nM
- TGI [1]: 3250 nM
- GI50 [10]: 2030 nM
- TGI [10]: 4760 nM
- GI50 [11]: 1710 nM
- TGI [11]: 3390 nM
- GI50 [12]: 1680 nM
- TGI [12]: 3270 nM
- GI50 [13]: 2760 nM
- TGI [13]: > 100000 nM
- GI50 [14]: 1750 nM
- TGI [14]: 3270 nM
- GI50 [15]: 2300 nM
- TGI [15]: > 100000 nM
- GI50 [16]: 2060 nM
- TGI [16]: 4820 nM
- GI50 [17]: 1640 nM
- TGI [17]: 3500 nM
- GI50 [18]: 1730 nM
- TGI [18]: 3620 nM
- GI50 [19]: 1630 nM
- TGI [19]: 3070 nM
- GI50 [20]: 1900 nM
- TGI [20]: 3870 nM
- GI50 [21]: 1770 nM
- TGI [21]: 3930 nM
- GI50 [22]: 1560 nM
- TGI [22]: 2910 nM
- GI50 [23]: 20100 nM
- TGI [23]: 37700 nM
- GI50 [24]: 1550 nM
- TGI [24]: 3050 nM
- GI50 [25]: 1810 nM
- TGI [25]: 3290 nM
- GI50 [26]: 1650 nM
- TGI [26]: 3060 nM
- GI50 [27]: 1810 nM
- TGI [27]: 3420 nM
- GI50 [28]: 2540 nM
- TGI [28]: 8680 nM
- GI50 [29]: 2030 nM
- TGI [29]: 4180 nM
- GI50 [30]: 1620 nM
- TGI [30]: 3040 nM
- GI50 [31]: 2600 nM
- TGI [31]: > 100000 nM
- GI50 [32]: 12300 nM
- TGI [32]: 24700 nM
- GI50 [33]: 1790 nM
- TGI [33]: 3760 nM
- GI50 [34]: 1800 nM
- TGI [34]: 5470 nM
- GI50 [35]: 1520 nM
- TGI [35]: 3130 nM
- GI50 [36]: 1970 nM
- TGI [36]: 5080 nM
- GI50 [37]: 1720 nM
- TGI [37]: 3170 nM
- GI50 [38]: 2020 nM
- TGI [38]: 4640 nM
- GI50 [39]: 1620 nM
- TGI [39]: 3010 nM
